Source: PubChem BioAssay (NCI)
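Dose response: 5 concentrations. Exposure: 48 h. Format: 96-well plates. Endpoint: linear interpolation; highest concentration if not reached. GI50: concentration for 50% inhibition of growth. At the TGI there is no net growth.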

How the values were obtained:
Assay in all cases: inhibition of tumour cell growth, NCI panel, 48 h
HL-60(TB) leukemia = system: HL-60(TB) leukemia
HCT-15 colon = system: HCT-15 colon
EKVX NSCLC = system: EKVX NSCLC
RXF 393 renal = system: RXF 393 renal
OVCAR-8 ovarian = system: OVCAR-8 ovarian
NCI-H23 lung = system: NCI-H23 lung
MOLT-4 leukemia = system: MOLT-4 leukemia
DU-145 prostate = system: DU-145 prostate
HCC-2998 colon = system: HCC-2998 colon
COLO 205 colon = system: COLO 205 colon

| SMILES | TGI (HL-60(TB) leukemia) [µM] | TGI (HCT-15 colon) [µM] | TGI (EKVX NSCLC) [µM] | TGI (RXF 393 renal) [µM] | TGI (OVCAR-8 ovarian) [µM] | TGI (NCI-H23 lung) [µM] | TGI (MOLT-4 leukemia) [µM] | TGI (DU-145 prostate) [µM] | TGI (HCC-2998 colon) [µM] | TGI (COLO 205 colon) [µM] | GI50 (NCI-H23 lung) [µM] | GI50 (HCC-2998 colon) [µM] |
| --- | --- | --- | --- | --- | --- | --- | --- | --- | --- | --- | --- | --- |
| CC[C@]12C=CCN3CCC4(c5cc([C@@]6(C(=O)OC)CC7CN(CCc8c6[nH]c6ccccc86)C[C@@H]6CCC[C@H]76)c(OC)cc5N(C)C4[C@](O)(C(=O)OC)C1OC(C)=O)C32 (some centres not stated) | 0.289 | > 10 | > 3.86 | 0.554 | > 4.81 | 1.42 | 6.02 | 0.0749 | > 6.75 | 0.375 |  |  |
| Cc1nn(C)c2c1C(=O)N(C)CC(=O)N2C | > 100 | > 100 | > 100 | > 100 | > 100 | > 100 | > 100 | > 100 | > 100 | > 100 |  |  |
| O=C(O)c1cc(Sc2ccc([N+](=O)[O-])c(C(=O)O)c2)ccc1[N+](=O)[O-] | > 100 | > 100 | > 100 | > 100 | > 100 | > 100 | > 100 | > 100 | > 100 | > 100 | > 100 | > 100 |
| COC(=O)CCC(=O)c1ccc2c(c1)CC1(C2)Cc2ccc3c(c2C1)CCCC3=O (configuration not stated) | 13.4 | > 67.4 | > 100 | 97.4 | > 100 | > 76.5 | 18.2 | > 100 | > 93.9 | > 67.6 |  |  |
| Cc1cc(-c2nc3cc(F)c(F)cc3s2)ccc1N | > 100 | > 100 | > 100 | > 100 | > 100 | > 100 | > 100 | > 100 | > 100 | > 100 |  |  |
| COC(=O)c1scc(N)c1-n1ccc(=O)[nH]c1=O | > 100 | > 100 | > 100 | > 100 | > 100 | > 100 | > 100 | > 100 | > 100 | > 100 |  |  |
| COC1(C)C=NCC(C)(C)NC(=O)C(C)(OC)C=NCC(C)(C)NC1=O (configuration not stated) | > 10 | > 10 | > 10 | > 10 | > 10 | > 10 | > 10 | > 10 | > 10 | > 10 |  |  |
